# Laboratory results published in patent publication US10786505B2, “Administration of NEDD8-activating enzyme inhibitor and chemotherapeutic agents” (Millennium Pharmaceuticals, Inc., priority 2013, dated 2020).
# Columns and labels:
# [1] = test system: PHTX02B breast xenograft model; assay: Combination of docetaxel and MLN4924 in PHTX02B xenograft model; format: in vivo, mice; conditions: for average tumor volume day 21: PHTX02B xenograft
# Source text: The PHTX02B breast xenograft model was established from a patient-derived tumor collected during surgery from a person with invasive ductal carcinoma classified as triple negative breast cancer (ER−/PR−/Her2−) by IHC. PHTX02B tumor fragments (approximately 2×2×3 mm^3) are implanted into the subcutaneous space in the right dorsal flank of female SCID-NOD mice (age 5-7 weeks, Jackson Laboratory, Bar Harbor, Me.) using a 13-gauge trocar.
# Docetaxel (Henry Schein, Inc., Pittsburgh Pa., Qilu Pharmaceutical Co., Ltd., Jinan, Shandong, China, and Sanofi-Aventis) is formulated in 0.9% saline and administered by intravenous injection (IV) once weekly (QW) at 5 mg/kg or 10 mg/kg.
# Tumors are measured twice weekly using a vernier caliper. Tumor volumes are calculated using standard procedures (0.5×(length×width^2)). […] Tumor size and body weight are measured approximately twice a week for the duration of the study. Mice are euthanized when their tumor volume reached 10% of their body weight, or when the average tumor volume of a treatment or control group reached approximately 2000 mm^3. Tumor growth continued to be monitored after the dosing period in some studies. Average tumor volume is reported as a function of time for selected groups of selected studies in Figures A, B, and C.
# Measurements from day 0 to 18, 21 or 22 are analyzed as specified in Tables 4-9. All tumor volumes have a value of 1 added to them before log10 transformation. For each animal, the log tumor volume at day 0 is subtracted from the log tumor volume on the subsequent days. This difference vs. time is used to calculate an area under the curve (AUC) for each animal using the trapezoid rule. […] The synergy score for the combination of agents A and B is defined as 100*(mean(AUCAB)−mean(AUCA)−mean(AUCB)+mean(AUCctl))/mean(AUCctl): where AUCAB, AUCA, AUCB, and AUCctl are the AUC values for animals in the combination group, the A group, the B group, and the control group, respectively. The standard error of the synergy score is computed based on the variation in the AUC values among the animals. […] If the P-value is above 0.05, then the combination is considered to be additive. If the P-value is below 0.05, and the synergy score is less than zero, then the combination is considered to be synergistic. […] Otherwise, the combination is classified as antagonistic.
# [2] = test system: PHTX02B xenograft model; assay: Combination of gemcitabine and MLN4924 in PHTX02B xenograft model; format: in vivo, mice
# Experimental: The PHTX02B breast xenograft model was established from a patient-derived tumor collected during surgery from a person with invasive ductal carcinoma classified as triple negative breast cancer (ER-/PR-/Her2-) by IHC. […] Gemcitabine (Gemzar, Henry Schein, Inc, Pittsburgh Pa., and Myoderm Medical, Norristown, Pa.) is formulated in 0.9% saline and administered by intraperitoneal injection (IP) q3Dx4 (every 3 days for a total of 4 doses) at 2.5 mg/kg or 10 mg/kg, or by IV injection twice weekly (BIW) at 20 mg/kg IVU. […] Tumors are measured twice weekly using a vernier caliper. […] Tumor size and body weight are measured approximately twice a week for the duration of the study. […] Tumor growth continued to be monitored after the dosing period in some studies. […] Average tumor volume is reported as a function of time for selected groups of selected studies in Figures A, B, and C. Measurements from day 0 to 18, 21 or 22 are analyzed as specified in Tables 4-9. […] For each animal, the log tumor volume at day 0 is subtracted from the log tumor volume on the subsequent days. This difference vs. time is used to calculate an area under the curve (AUC) for each animal using the trapezoid rule. In instances when an animal in a treatment group is removed early from the study, the last observed tumor value is carried forward through all subsequent time points. […] The standard error of the synergy score is computed based on the variation in the AUC values among the animals. […] Otherwise, the combination is classified as antagonistic.
compound,measurement,setting,value
"NS(=O)(=O)OC[C@@H]1C[C@@H](n2ccc3c(N[C@H]4CCc5ccccc54)ncnc32)C[C@@H]1O [MLN4924, ((1S,2S,4R)-4-(4-((1S)-2,3-dihydro-1H-inden-1-ylamino)-7H-pyrrolo[2,3-d]-pyrimidin-7-yl)-2-hydroxycyclopentyl)methyl sulfamate]",tumor growth during the treatment period (in words),"[1]; PHTX02B breast xenograft, FIG. 1, MLN4924 SC 60 mg/kg BID 5 days on/5 days off, docetaxel 5 mg/kg IV QW, single agents or their combination",inhibited tumor growth compared to the control vehicle group
same,average tumor volume day 21,[1]; 30 mg/kg MLN4924 BID 5 on/5 off SC,1110.9 mm^3
same,average tumor volume day 21,[1]; 30 mg/kg MLN4924 BID SC,894.4 mm^3
same,average tumor volume day 21,[1]; 60 mg/kg MLN4924 BID 5 on/5 off SC,532.2 mm^3
same,average tumor volume day 22,[2]; 30 mg/kg MLN4924 BID SC,647.4 mm^3
same,tumor growth during the treatment period (in words),"[2]; FIG. 2, MLN4924 SC 30 mg/kg BID, gemcitabine 10 mg/kg IP q3dx4, single agents or their combination",inhibited tumor growth compared to the control vehicle group
